The target in test [1] is T1, NPR-C (Homo sapiens, UniProt P17342).
T1 construct: expressed in transfected cells; host or cells: HEK293, transient, pCDNA1.1 (CMV promoter)
T1 sequence (P17342 27-541): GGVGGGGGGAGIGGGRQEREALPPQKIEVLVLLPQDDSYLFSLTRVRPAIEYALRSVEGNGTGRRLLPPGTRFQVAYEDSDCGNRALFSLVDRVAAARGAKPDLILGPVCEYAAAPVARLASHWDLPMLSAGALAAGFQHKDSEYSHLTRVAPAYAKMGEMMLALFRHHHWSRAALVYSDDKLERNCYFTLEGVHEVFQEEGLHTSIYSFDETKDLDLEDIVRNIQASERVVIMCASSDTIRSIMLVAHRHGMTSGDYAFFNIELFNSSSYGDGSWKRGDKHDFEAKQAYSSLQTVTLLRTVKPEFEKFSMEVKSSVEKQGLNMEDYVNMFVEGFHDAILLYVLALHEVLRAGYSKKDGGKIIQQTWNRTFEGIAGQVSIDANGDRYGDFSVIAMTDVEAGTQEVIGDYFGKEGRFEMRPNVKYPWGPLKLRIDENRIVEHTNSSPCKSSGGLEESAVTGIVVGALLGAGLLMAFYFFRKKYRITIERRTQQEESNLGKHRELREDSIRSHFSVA
The test can be described thus: ANP-stimulated cGMP in NPR-C overexpressing HEK293 cells. The format is cell-based. As to conditions: NPR-C overexpressing cells, 0.1 nM ANP[1-28] alone. The source says: The expression plasmid for rat GC-A containing the entire coding sequence cloned between the NheI-KpnI sites of CMV-driven pBK plasmid (Stratagene, La Jolla, Calif.) was kindly provided by Dr. A. De Léan (Département de Pharmacologie, Université de Montréal). The human NPR-C and GC-B coding sequences were amplified by RT-PCR from human embryonic kidney polyA RNA (Clontech, Palo Alto, Calif.) with the following primer pairs: NPR-C-5′-[…]-3′(forward) (SEQ ID NO: 74) and 5′-[…]-3′ (SEQ ID NO: 75) (reverse); GC-B-5′-[…]-3′ (SEQ ID NO: 76) (forward) and 5′-[…]-3′ (SEQ ID NO: 77) (reverse). The resulting PCR products were then cloned downstream of the CMV-promoter into the pCDNA1.1 plasmid (Invitrogen, Burlington, ON, Canada). All constructs were validated by DNA sequencing.

In test [2] the test system is primary rat osteoblastic cultures. As to conditions: cited from earlier work.
In test [3] the target is T2, NPR-C (Mus musculus, UniProt P70180).
T2 construct: NPR-C was also found to be expressed in these cells; endogenous in cells; host or cells: ATDC5 (mouse chondrogenic cell line), intact cells
T2 sequence (P70180 41-536): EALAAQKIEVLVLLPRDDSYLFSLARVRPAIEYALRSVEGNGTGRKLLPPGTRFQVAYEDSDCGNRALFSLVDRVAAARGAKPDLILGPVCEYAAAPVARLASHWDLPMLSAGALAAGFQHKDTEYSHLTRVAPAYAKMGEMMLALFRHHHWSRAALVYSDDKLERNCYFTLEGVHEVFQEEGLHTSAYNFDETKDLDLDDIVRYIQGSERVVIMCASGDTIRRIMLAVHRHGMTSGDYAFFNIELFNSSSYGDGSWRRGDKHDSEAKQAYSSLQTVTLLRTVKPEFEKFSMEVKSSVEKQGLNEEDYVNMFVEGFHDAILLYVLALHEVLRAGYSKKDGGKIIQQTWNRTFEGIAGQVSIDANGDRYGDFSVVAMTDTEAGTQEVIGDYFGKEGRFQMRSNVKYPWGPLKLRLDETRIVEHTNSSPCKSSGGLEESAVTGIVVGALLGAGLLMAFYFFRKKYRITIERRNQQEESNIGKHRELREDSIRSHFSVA
The test can be described thus: Competitive binding of 125I-Ostn[83-133] on ATDC5 cells. The source says:
To gain further insight into the cellular basis of the interaction between CNP and Ostn in endochondral bone formation, ATDC5 cells were used. These cells are a mouse chondrogenic cell line derived from embryogenic carcinoma cells (Shukunami et al., 1996). […] In another study, NPR-C was also found to be expressed in these cells and the amount of transcripts decreased in association with the chondrogenic differentiation (Fujishige et al., 1999).
(§1) Cold and radio iodinated human Ostn[83-133] (SEQ ID NO: 41) were purchased from Phoenix Pharmaceutical co. (CA, USA). CNP was obtained from Sigma (St. Louis, USA) and rat C-ANF was purchased from Bachem (CA, USA). Cyclic GMP direct Biotrak™ EIA kit was obtained from Amersham Biosciences (Quebec, Canada) and DMEM/F-12 and PBS were obtained from Wisent (Quebec, Canada). Protease inhibitors were purchased from Roche (Quebec, Canada)
ATDC5 cells, grown in 24-well plates to 90% confluence, were washed twice with cold PBS and incubated with 500 μl of DMEM/F-F12 containing 0.1% BSA (wt/vol), protease inhibitor (40 μl/ml of medium), ^1251-Ostn[83-133] (0.05 μCi/well) and varying concentration of cold Ostn[83-133] (SEQ ID NO: 41) for 90 min at 4° C. After incubation, cells were washed twice with ice-cold PBS and solubilized with 0.5-ml of 0.5 M NaOH.
The radioactivity was measured with gamma-counter (Wallac).

Another test deals with ATDC5 cells. In words: cGMP production in ATDC5 cells. It is filed as cell-based, mouse. As to conditions: 0.1 μM.
Description: To gain further insight into the cellular basis of the interaction between CNP and Ostn in endochondral bone formation, ATDC5 cells were used. These cells are a mouse chondrogenic cell line derived from embryogenic carcinoma cells (Shukunami et al., 1996). […] In another study, NPR-C was also found to be expressed in these cells and the amount of transcripts decreased in association with the chondrogenic differentiation (Fujishige et al., 1999). Therefore, ATDC5 cells are considered to be a good model to study the interaction between CNP and Ostn in vitro.
as §1
Cells, grown in 24-well plates to 90% confluence, were washed twice with PBS and incubated in DMEM/F12 containing 1 mM IBMX, a protease inhibitor cocktail (40 ul/ml of medium), 0.1% BSA with or without C-ANF (0.1 μM) or Ostn[83-133] (0.1 μM) for 10 min at 37° C. prior to the addition of varying concentrations of CNP. They were then incubated for 15 min. After incubation, cells were washed twice with PBS and scraped in ice-cold ethanol (65%). The supernatant, obtained by centrifuging at 2000×g for 15 min at 4° C., was evaporated to dryness via speed vac. The amount of cGMP was measured with cGMP direct Biotrak™ EIA kit.

Test [4] deals with foetal mouse tibial organ culture. As to conditions: ex vivo foetal mouse tibia; cited from earlier work.

Positions of bridges follow the written chain, without caps; N, C: chain ends. Residues, ends and D or L forms follow the SMILES beside them. No end group written: not given here.

Usually IC50 stands for the concentration that inhibits the measured activity by half. Higher therefore signals a need for much substance.

With `CC[C@H](C)[C@@H]1NC(=O)[C@H](CCCNC(=N)N)NC(=O)[C@H](CC(=O)O)NC(=O)[C@H](CCSC)NC(=O)[C@H](CCCNC(=N)N)NC(=O)CNC(=O)CNC(=O)[C@H](Cc2ccccc2)NC(=O)[C@@H](NC(=O)[C@H](CO)NC(=O)[C@H](CO)NC(=O)[C@H](CCCNC(=N)N)NC(=O)[C@H](CCCNC(=N)N)NC(=O)[C@H](CC(C)C)NC(=O)[C@@H](N)CO)CSSC[C@@H](C(=O)N[C@@H](CC(N)=O)C(=O)N[C@@H](CO)C(=O)N[C@@H](Cc2ccccc2)C(=O)N[C@@H](CCCNC(=N)N)C(=O)N[C@@H](Cc2ccc(O)cc2)C(=O)O)NC(=O)CNC(=O)[C@H](CC(C)C)NC(=O)CNC(=O)[C@H](CO)NC(=O)[C@H](CCC(N)=O)NC(=O)[C@H](C)NC(=O)CNC1=O` [ANP], the “increase in cGMP levels upon ANP stimulation” value at NPR-C [1] is 1.5 fold. For the same compound, in test [2], the “effect on osteoblast differentiation” value is listed as “stimulated osteoblast differentiation” and the effect on proliferation entry is reported as “inhibited proliferation”.
For the compound `CC[C@H](C)[C@@H]1NC(=O)[C@H](CCCNC(=N)N)NC(=O)[C@H](CC(=O)O)NC(=O)[C@H]([C@@H](C)CC)NC(=O)[C@H](CCCNC(=N)N)NC(=O)CNC(=O)CNC(=O)[C@H](Cc2ccccc2)NC(=O)[C@@H](NC(=O)[C@H](CO)NC(=O)[C@H](CO)NC(=O)[C@@H](N)CCCNC(=N)N)CSSC[C@@H](C(N)=O)NC(=O)[C@H](C)NC(=O)CNC1=O` [C-ANF] (H-RSSCFGGRIDRIGAC-NH2; disulfide 4-15; N-terminus and C-terminus assumed), on NPR-C [3], the IC50 came to 6.7 nM. Further, at NPR-C [3] (1 μM), the “maximal inhibition, less than that of cold Ostn[83-133]” value was determined as 15%. Moreover, the “cGMP production by peptide alone” value in the test on ATDC5 cells is “only trace of cGMP production”. In addition, the “effect on bone length” value in test [4] is “no effect”. Also, in test [2], the “effect on osteoblast differentiation” value is “no effect”.
Turning to “SFSGFGSPLDRLSAGSVDHKGKQRKVVDHPKRRFGIPMDRIGRNRLSNSRG [Ostn[83-133]]”, the “inhibition of bound 125I-Ostn[83-133]” value on NPR-C [3] (1 μM cold peptide) is given as “More than 90%”. The same compound returned a total binding at NPR-C [3] (ATDC5 cells, 24-well plates) of 76.5 pmol/well. The “cGMP production by peptide alone” value in the test on ATDC5 cells is given as “only trace of cGMP production”.
